Measurements: patent US11180462B2, “Microbiocidal oxadiazole derivatives” (SYNGENTA PARTICIPATIONS AG, priority 2015, dated 2021)

Legend:
[1] = system: Phakopsora Pachyrhizi; test: Fungicidal activity against Phakopsora pachyrhizi / soybean / leaf disc preventative (Asian soybean rust); type: in vivo; conditions: foliar, 200 ppm in the applied formulation, soybean leaf disks, compared to untreated control leaf disks, read-out: disease control
Summary of the method: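 Preventative soybean leaf-disc test: discs on water agar sprayed with diluted formulated compound, inoculated one day later with spores on the lower surface. Held 24–36 h dark at 20°C, 75% rh, then 12 h light/day; percent disease control versus untreated discs scored 12–14 days after application.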

[2] = system: Puccinia recondita f. Sp. Tritici; test: Fungicidal activity against Puccinia recondita f. sp. tritici / wheat / leaf disc preventative (brown rust); type: in vivo; conditions: foliar, 200 ppm in the applied formulation, wheat leaf segments, preventative, compared to untreated control leaf disks, read-out: disease control
Summary of the method: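 Compound application precedes infection: segments of wheat cv. Kanzler, sprayed at 200 ppm, are inoculated with a spore suspension after 1 day. Incubation is at 19° C. with 75% relative humidity and 12 h light/12 h darkness, and control versus untreated leaves is rated 7 to 9 days post-application.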

[3] = system: Glomerella lagenarium (Colletotrichum lagenarium); test: Fungicidal activity against Glomerella lagenarium (Colletotrichum lagenarium) liquid culture / cucumber / preventative (anthracnose); type: cell-based; conditions: Colletotrichum orbiculare; 20 ppm in the applied formulation; liquid culture (PDB), growth inhibition measured photometrically after 3 to 4 days; compared to untreated control; read-out: disease control
Summary of the method: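 Photometric read-out of fungal growth after 2–7 days, expressed as percent antifungal activity versus untreated check. Cryo-stored conidia in PDB; compound at 20 ppm; dark, 24 °C, 96% RH.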

[4] = system: Puccinia recondita f. Sp. Tritici; test: Fungicidal activity against Puccinia recondita f. sp. tritici / wheat / leaf disc curative (brown rust); type: in vivo; conditions: foliar, 24 h, 200 ppm in the applied formulation, wheat leaf segments, curative (applied 1 day after inoculation), compared to untreated control leaf disks, read-out: disease control
Summary of the method: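 Inoculate cv. Kanzler segments on agar; hold dark, 19° C, 75% RH. Spray diluted formulated compound at day 1. Incubate 12 h light/12 h dark, same temperature and humidity; score % control vs untreated 6–8 days later.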

| Compound | pest or weed control at 200 ppm [1] | melting point | pest or weed control at 200 ppm [2] | inhibition of growth at 20 ppm [3] | pest or weed control at 200 ppm [4] |
| --- | --- | --- | --- | --- | --- |
| CON(Cc1ccc(-c2noc(C(F)(F)F)n2)cc1)C(=O)N[C@@H](C)C1CC1 [Compound 3.41, 3-[(1S)-1-cyclopropylethyl]-1-methoxy-1-[[4-[5-(trifluoromethyl)-1,2,4-oxadiazol-3-yl]phenyl]methyl]urea] | ≥ 80% | 99 to 102 °C | ≥ 80% | ≥ 80% | ≥ 80% |
| CCOC(=O)C1(NC(=O)N(Cc2ccc(-c3noc(C(F)(F)F)n3)cc2)OC)CC1 [Compound 3.48, ethyl 1-[[methoxy-[[4-[5-(trifluoromethyl)-1,2,4-oxadiazol-3-yl]phenyl]methyl]-carbamoyl]amino]-cyclopropanecarboxylate] | ≥ 80% | 93 to 97 °C | ≥ 80% | ≥ 80% | ≥ 80% |
| COC(=O)N(O)Cc1ccc(-c2noc(C(F)(F)F)n2)cc1 [Compound 2.24, methyl N-hydroxy-N-[[4-[5-(trifluoromethyl)-1,2,4-oxadiazol-3-yl]phenyl]methyl]-carbamate] | ≥ 80% | 73 to 75.1 °C | ≥ 80% | ≥ 80% | ≥ 80% |
| CON(Cc1ccc(-c2noc(C(F)(F)F)n2)cc1)C(=O)NCC1CC1 [Compound 3.6, 3-(cyclopropylmethyl)-1-methoxy-1-[[4-[5-(trifluoromethyl)-1,2,4-oxadiazol-3-yl]phenyl]methyl]urea] | ≥ 80% | 77 to 81.4 °C | ≥ 80% | ≥ 80% | ≥ 80% |
| CON(Cc1ccc(-c2noc(C(F)(F)F)n2)cc1)C(=O)NCC#N [Compound 3.39, 3-(cyanomethyl)-1-methoxy-1-[[4-[5-(trifluoromethyl)-1,2,4-oxadiazol-3-yl]phenyl]methyl]urea] | ≥ 80% | 155 to 158 °C | ≥ 80% | ≥ 80% | ≥ 80% |
| CON(C)C(=O)N(O)Cc1ccc(-c2noc(C(F)(F)F)n2)cc1 [Compound 3.29, 1-hydroxy-3-methoxy-3-methyl-1-[[4-[5-(trifluoromethyl)-1,2,4-oxadiazol-3-yl]phenyl]methyl]urea] | ≥ 80% | 96.3 to 100.5 °C | ≥ 80% | ≥ 80% | ≥ 80% |
| COCC(=O)N(Cc1ccc(-c2noc(C(F)(F)F)n2)cc1)CC(F)(F)F [Compound 1.583, 2-methoxy-N-(2,2,2-trifluoroethyl)-N-[[4-[5-(trifluoromethyl)-1,2,4-oxadiazol-3-yl]phenyl]methyl]-acetamide] | ≥ 80% | 92.6 to 94.3 °C | ≥ 80% | ≥ 80% | ≥ 80% |
| CON(C)C(=O)N(C)C(C#N)c1ccc(-c2noc(C(F)(F)F)n2)cc1 (centres unmarked) [Compound 3.31, 1-[cyano-[4-[5-(trifluoromethyl)-1,2,4-oxadiazol-3-yl]phenyl]methyl]-3-methoxy-1,3-dimethyl-urea] | ≥ 80% | 106 to 107 °C | ≥ 80% | ≥ 80% | ≥ 80% |
| CNC(=O)N(C)Cc1ccc(-c2noc(C(F)(F)F)n2)cc1 [Compound 3.37, 1,3-dimethyl-1-[[4-[5-(trifluoromethyl)-1,2,4-oxadiazol-3-yl]phenyl]methyl]urea] | ≥ 80% | 95 to 98 °C | ≥ 80% | ≥ 80% | ≥ 80% |
| CCC(=O)N(C)C(C#N)c1ccc(-c2noc(C(F)(F)F)n2)cc1 (centres unmarked) [Compound 1.611, N-[cyano-[4-[5-(trifluoromethyl)-1,2,4-oxadiazol-3-yl]phenyl]methyl]-N-methyl-propanamide] | ≥ 80% | 75 to 76 °C | ≥ 80% | ≥ 80% | ≥ 80% |
| CON(Cc1ccc(-c2noc(C(F)(F)F)n2)cc1)C(=O)NC1CC1 [Compound 3.14, 3-cyclopropyl-1-methoxy-1-[[4-[5-(trifluoromethyl)-1,2,4-oxadiazol-3-yl]phenyl]methyl]urea] | ≥ 80% | 84 to 87 °C | ≥ 80% | ≥ 80% | ≥ 80% |
| CON(Cc1ccc(-c2noc(C(F)(F)F)n2)cc1)C(=O)NC1(C#N)CC1 [Compound 3.47, 3-(1-cyanocyclopropyl)-1-methoxy-1-[[4-[5-(trifluoromethyl)-1,2,4-oxadiazol-3-yl]phenyl]methyl]urea] | ≥ 80% | 106 to 109 °C | ≥ 80% | ≥ 80% | ≥ 80% |
| CON(Cc1ccc(-c2noc(C(F)(F)F)n2)cc1)C(=O)NC(C)C [Compound 3.42, 3-isopropyl-1-methoxy-1-[[4-[5-(trifluoromethyl)-1,2,4-oxadiazol-3-yl]phenyl]methyl]urea] | ≥ 80% | 106 to 107.3 °C | ≥ 80% | ≥ 80% | ≥ 80% |
| CCONC(=O)N(Cc1ccc(-c2noc(C(F)(F)F)n2)cc1)OC [Compound 3.18, 3-ethoxy-1-methoxy-1-[[4-[5-(trifluoromethyl)-1,2,4-oxadiazol-3-yl]phenyl]methyl]urea] | ≥ 80% | 107 to 110 °C | ≥ 80% | ≥ 80% | ≥ 80% |
| O=C(C1CC1)N(O)Cc1ccc(-c2noc(C(F)(F)F)n2)cc1 [Compound 1.607, N-hydroxy-N-[[4-[5-(trifiuoromethyl)-1,2,4-oxadiazol-3-yl]phenyl]methyl]-cyclopropane-carboxamide] | ≥ 80% | 141.2 to 143.5 °C | ≥ 80% | ≥ 80% | ≥ 80% |
| CCC(=O)N(O)Cc1ccc(-c2noc(C(F)(F)F)n2)cc1 [Compound 1.603, N-hydroxy-N-[[4-[5-(trifiuoromethyl)-1,2,4-oxadiazol-3-yl]phenyl]methyl]-propanamide] | ≥ 80% | 141.2 to 143.5 °C | ≥ 80% | ≥ 80% | ≥ 80% |
| CON(Cc1ccc(-c2noc(C(F)(F)F)n2)cc1)C(=O)NCC(=O)N(C)C [Compound 3.51, 2-[[methoxy-[[4-[5-(trifluoromethyl)-1,2,4-oxadiazol-3-yl]phenyl]methyl]-carbamoyl]amino]-N,N-dimethyl-acetamide] | ≥ 80% | 98 to 101 °C | ≥ 80% | ≥ 80% | ≥ 80% |
| C#CCNC(=O)N(Cc1ccc(-c2noc(C(F)(F)F)n2)cc1)OC [Compound 3.43, 1-methoxy-3-prop-2-ynyl-1-[[4-[5-(trifluoromethyl)-1,2,4-oxadiazol-3-yl]phenyl]methyl]urea] | ≥ 80% | 88.9 to 90.6 °C | ≥ 80% | ≥ 80% | ≥ 80% |
| CON(Cc1ccc(-c2noc(C(F)(F)F)n2)cc1)C(=O)NC1COC1 [Compound 3.55, 1-methoxy-3-(oxetan-3-yl)-1-[[4-[5-(trifluoromethyl)-1,2,4-oxadiazol-3-yl]phenyl]methyl]urea] | ≥ 80% | 97 to 100 °C | ≥ 80% | ≥ 80% | ≥ 80% |
